Measurements reported in ChEMBL document CHEMBL4507276 (2021).

What was measured:
Details in all cases: Compound concentration 1000.0 nM
[1] = test system: Tyrosine-protein kinase ABL1 (Homo sapiens), P00519 [T315I]
[2] = target: T1, Aurora kinase A (Homo sapiens) (UniProt O14965)
T1 sequence (whole entry): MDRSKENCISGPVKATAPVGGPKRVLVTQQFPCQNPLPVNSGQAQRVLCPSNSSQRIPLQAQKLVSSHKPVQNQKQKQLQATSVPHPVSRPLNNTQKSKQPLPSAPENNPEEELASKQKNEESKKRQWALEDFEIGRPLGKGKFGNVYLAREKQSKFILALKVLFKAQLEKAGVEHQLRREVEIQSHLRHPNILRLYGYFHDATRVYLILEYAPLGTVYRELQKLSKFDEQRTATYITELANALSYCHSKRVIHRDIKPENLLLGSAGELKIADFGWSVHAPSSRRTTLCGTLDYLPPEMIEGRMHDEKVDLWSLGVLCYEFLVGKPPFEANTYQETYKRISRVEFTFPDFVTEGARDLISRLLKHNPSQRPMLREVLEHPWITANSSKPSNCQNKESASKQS

[3] = target: Serine/threonine-protein kinase Chk2 (Homo sapiens) (UniProt O96017)
[4] = target: Dual specificity protein kinase CLK3 (Homo sapiens) (UniProt P49761)
[5] = test system: Epidermal growth factor receptor (Homo sapiens), P00533 [L861Q]
[6] = target: T2, Ephrin type-A receptor 8 (Homo sapiens) (UniProt P29322)
T2 sequence (whole entry): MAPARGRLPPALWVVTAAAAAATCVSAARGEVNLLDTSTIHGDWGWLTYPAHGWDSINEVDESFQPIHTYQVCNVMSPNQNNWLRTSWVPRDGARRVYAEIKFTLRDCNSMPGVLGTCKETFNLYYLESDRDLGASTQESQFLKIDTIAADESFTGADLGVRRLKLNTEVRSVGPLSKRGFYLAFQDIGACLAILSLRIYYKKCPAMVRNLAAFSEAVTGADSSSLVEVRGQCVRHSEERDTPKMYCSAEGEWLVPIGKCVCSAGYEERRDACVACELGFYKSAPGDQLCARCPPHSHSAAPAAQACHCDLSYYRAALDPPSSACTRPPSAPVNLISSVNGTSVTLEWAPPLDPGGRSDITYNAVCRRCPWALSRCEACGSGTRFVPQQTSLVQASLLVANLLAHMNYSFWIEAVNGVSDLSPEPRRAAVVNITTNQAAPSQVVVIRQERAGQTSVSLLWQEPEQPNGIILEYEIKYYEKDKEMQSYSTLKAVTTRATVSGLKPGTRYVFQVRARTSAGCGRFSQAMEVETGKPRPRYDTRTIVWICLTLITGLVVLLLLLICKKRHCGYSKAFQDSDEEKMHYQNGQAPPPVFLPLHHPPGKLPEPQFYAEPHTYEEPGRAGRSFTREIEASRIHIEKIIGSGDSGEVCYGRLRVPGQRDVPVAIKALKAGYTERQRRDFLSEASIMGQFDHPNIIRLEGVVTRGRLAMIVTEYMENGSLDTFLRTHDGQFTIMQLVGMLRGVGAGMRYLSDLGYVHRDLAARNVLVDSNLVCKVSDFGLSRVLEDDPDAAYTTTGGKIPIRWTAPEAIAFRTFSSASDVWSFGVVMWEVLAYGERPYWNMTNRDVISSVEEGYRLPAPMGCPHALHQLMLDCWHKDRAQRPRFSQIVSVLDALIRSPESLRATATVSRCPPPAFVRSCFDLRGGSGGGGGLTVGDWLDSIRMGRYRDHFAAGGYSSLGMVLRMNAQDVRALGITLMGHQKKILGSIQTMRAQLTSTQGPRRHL

[7] = target: Receptor tyrosine-protein kinase erbB-2 (Homo sapiens) (UniProt P04626)
[8] = target: Homeodomain-interacting protein kinase 3 (Homo sapiens) (UniProt Q9H422)
[9] = target: Serine/threonine-protein kinase PAK 1 (Homo sapiens) (UniProt Q13153)
[10] = target: Cyclin-dependent kinase 17 (Homo sapiens) (UniProt Q00537)
[11] = test system: Phosphatidylinositol 4,5-bisphosphate 3-kinase catalytic subunit alpha isoform (Homo sapiens), P42336 [Q546K]
[12] = target: Serine/threonine-protein kinase PknB (Mycobacterium tuberculosis) (UniProt P9WI81)
[13] = target: T3, Protein kinase C iota type (Homo sapiens) (UniProt P41743)
T3 sequence (whole entry): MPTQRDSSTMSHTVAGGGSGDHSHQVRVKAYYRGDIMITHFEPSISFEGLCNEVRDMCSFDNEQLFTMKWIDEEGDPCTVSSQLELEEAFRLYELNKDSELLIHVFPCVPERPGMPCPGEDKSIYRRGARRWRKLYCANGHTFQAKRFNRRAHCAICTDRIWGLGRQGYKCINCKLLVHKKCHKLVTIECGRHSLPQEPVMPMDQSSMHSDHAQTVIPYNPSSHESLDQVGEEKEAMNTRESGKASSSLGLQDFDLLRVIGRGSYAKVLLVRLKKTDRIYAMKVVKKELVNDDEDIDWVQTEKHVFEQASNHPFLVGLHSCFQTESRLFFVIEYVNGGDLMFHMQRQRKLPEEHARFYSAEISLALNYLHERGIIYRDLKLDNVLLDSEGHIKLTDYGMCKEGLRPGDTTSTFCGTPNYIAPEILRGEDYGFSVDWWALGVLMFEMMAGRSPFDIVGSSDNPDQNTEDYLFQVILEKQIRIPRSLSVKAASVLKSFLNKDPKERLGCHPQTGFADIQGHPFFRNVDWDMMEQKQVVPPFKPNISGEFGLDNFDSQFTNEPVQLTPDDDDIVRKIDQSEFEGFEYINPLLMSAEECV

[14] = target: Ribosomal protein S6 kinase alpha-6 (Homo sapiens) (UniProt Q9UK32)
[15] = target: Serine/threonine-protein kinase SIK2 (Homo sapiens) (UniProt Q9H0K1)
[16] = target: SNF-related serine/threonine-protein kinase (Homo sapiens) (UniProt Q9NRH2)
[17] = target: Tyrosine-protein kinase Srms (Homo sapiens) (UniProt Q9H3Y6)
[18] = target: Serine/threonine-protein kinase WNK1 (Homo sapiens) (UniProt Q9H4A3)

Measured: residual activity

Chain of Serine/threonine-protein kinase PAK 1 (Homo sapiens) (Q13153 whole entry): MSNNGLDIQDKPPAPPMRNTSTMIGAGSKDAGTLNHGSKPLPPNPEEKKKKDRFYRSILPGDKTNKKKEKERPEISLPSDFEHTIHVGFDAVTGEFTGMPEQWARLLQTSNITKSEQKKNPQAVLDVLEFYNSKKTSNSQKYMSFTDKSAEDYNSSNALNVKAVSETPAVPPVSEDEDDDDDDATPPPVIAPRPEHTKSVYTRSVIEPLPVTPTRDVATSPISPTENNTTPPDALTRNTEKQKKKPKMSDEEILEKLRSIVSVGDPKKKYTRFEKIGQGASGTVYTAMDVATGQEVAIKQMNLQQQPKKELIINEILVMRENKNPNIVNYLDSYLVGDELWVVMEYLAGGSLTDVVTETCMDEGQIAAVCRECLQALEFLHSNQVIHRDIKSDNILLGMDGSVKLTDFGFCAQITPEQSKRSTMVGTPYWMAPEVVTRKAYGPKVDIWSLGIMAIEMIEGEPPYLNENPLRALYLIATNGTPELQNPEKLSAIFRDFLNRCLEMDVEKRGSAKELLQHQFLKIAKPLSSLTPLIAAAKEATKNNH
Chain of Phosphatidylinositol 4,5-bisphosphate 3-kinase catalytic subunit alpha isoform (Homo sapiens), P42336 [Q546K] (P42336 whole entry Q546K, canonical isoform): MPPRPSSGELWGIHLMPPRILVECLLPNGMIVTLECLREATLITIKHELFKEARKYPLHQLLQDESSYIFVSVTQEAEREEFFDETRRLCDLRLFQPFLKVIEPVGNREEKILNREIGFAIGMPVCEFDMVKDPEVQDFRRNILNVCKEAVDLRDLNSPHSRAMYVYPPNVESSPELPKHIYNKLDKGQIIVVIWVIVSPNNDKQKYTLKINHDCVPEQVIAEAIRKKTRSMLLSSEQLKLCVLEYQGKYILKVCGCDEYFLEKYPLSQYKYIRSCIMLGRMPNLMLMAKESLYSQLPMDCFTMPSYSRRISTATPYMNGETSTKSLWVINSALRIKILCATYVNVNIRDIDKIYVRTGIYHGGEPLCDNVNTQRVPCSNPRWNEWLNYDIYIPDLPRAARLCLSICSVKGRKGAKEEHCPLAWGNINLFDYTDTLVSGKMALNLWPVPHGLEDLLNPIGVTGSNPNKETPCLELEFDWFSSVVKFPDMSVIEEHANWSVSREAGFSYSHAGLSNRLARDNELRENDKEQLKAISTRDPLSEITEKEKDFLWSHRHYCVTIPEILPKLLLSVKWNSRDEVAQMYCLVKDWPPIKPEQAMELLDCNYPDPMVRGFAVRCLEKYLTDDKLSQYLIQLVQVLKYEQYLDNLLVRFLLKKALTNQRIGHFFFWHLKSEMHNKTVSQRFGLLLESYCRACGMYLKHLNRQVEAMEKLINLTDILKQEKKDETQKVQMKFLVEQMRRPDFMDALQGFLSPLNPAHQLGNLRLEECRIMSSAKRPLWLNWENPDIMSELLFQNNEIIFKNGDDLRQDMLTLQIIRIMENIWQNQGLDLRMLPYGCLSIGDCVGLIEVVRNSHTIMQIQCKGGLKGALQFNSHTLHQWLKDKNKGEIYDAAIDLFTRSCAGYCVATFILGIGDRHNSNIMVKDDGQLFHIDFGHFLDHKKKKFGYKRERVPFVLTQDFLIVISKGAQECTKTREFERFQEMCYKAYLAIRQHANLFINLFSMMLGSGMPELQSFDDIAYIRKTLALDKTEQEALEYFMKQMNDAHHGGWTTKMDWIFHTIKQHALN
Chain of Serine/threonine-protein kinase WNK1 (Homo sapiens) (Q9H4A3 whole entry, looked up): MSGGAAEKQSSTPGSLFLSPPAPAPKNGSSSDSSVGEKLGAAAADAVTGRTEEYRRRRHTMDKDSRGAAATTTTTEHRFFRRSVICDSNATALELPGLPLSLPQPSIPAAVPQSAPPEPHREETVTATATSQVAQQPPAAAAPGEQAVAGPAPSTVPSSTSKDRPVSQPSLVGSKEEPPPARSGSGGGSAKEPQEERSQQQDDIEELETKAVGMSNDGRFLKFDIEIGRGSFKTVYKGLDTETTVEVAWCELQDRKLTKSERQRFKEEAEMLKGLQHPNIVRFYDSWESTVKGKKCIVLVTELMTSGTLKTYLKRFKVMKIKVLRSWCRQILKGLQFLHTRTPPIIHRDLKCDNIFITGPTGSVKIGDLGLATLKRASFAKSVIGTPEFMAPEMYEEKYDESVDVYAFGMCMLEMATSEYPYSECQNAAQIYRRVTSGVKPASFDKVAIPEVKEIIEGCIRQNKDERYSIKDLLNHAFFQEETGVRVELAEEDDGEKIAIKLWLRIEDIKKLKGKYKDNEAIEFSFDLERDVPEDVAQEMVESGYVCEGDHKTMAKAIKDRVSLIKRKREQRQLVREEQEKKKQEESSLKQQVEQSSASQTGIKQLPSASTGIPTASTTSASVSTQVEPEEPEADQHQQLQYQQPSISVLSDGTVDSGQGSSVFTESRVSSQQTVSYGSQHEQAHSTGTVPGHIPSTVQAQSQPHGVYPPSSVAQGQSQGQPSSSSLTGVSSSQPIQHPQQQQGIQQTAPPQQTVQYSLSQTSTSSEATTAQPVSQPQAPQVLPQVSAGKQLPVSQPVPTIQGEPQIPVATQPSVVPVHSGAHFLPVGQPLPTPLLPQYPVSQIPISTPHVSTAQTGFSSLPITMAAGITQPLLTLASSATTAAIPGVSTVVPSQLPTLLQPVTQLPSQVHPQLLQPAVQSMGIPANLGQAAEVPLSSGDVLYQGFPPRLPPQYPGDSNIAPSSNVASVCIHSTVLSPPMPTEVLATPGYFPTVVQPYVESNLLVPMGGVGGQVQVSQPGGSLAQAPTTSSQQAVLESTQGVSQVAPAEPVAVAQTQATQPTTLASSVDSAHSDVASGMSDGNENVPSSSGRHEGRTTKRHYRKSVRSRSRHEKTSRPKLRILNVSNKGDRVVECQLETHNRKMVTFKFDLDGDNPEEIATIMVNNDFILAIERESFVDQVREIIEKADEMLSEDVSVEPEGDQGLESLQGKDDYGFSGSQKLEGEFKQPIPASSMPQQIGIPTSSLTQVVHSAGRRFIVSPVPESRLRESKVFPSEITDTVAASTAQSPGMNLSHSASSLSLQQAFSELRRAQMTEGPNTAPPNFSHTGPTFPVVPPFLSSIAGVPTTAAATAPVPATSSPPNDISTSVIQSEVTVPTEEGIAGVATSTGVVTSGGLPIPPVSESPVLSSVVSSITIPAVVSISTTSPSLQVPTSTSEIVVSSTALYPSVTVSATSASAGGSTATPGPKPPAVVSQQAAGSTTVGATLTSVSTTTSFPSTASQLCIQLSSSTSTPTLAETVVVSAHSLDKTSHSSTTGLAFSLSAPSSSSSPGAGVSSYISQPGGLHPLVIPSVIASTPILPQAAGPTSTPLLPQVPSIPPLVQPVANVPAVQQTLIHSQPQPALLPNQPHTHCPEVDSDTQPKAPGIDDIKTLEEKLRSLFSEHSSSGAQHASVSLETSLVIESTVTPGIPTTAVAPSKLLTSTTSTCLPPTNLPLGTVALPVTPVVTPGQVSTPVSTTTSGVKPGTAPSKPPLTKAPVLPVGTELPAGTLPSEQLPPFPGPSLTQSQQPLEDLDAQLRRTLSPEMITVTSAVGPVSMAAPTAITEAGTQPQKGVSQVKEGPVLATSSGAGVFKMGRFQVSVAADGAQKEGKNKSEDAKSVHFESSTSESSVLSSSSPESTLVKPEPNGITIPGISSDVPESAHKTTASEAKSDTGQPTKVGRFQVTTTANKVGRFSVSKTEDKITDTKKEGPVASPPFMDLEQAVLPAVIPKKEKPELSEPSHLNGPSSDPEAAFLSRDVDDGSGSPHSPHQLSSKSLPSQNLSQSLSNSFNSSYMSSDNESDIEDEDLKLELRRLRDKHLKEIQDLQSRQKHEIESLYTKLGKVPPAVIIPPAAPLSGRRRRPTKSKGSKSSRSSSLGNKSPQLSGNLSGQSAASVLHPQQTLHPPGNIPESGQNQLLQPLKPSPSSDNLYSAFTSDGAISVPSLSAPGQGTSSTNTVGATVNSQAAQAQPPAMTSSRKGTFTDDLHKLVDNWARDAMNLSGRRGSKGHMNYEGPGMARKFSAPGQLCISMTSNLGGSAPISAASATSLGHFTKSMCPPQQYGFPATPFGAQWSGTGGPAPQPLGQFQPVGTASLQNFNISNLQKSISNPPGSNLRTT
Chain of Serine/threonine-protein kinase SIK2 (Homo sapiens) (Q9H0K1 whole entry, looked up): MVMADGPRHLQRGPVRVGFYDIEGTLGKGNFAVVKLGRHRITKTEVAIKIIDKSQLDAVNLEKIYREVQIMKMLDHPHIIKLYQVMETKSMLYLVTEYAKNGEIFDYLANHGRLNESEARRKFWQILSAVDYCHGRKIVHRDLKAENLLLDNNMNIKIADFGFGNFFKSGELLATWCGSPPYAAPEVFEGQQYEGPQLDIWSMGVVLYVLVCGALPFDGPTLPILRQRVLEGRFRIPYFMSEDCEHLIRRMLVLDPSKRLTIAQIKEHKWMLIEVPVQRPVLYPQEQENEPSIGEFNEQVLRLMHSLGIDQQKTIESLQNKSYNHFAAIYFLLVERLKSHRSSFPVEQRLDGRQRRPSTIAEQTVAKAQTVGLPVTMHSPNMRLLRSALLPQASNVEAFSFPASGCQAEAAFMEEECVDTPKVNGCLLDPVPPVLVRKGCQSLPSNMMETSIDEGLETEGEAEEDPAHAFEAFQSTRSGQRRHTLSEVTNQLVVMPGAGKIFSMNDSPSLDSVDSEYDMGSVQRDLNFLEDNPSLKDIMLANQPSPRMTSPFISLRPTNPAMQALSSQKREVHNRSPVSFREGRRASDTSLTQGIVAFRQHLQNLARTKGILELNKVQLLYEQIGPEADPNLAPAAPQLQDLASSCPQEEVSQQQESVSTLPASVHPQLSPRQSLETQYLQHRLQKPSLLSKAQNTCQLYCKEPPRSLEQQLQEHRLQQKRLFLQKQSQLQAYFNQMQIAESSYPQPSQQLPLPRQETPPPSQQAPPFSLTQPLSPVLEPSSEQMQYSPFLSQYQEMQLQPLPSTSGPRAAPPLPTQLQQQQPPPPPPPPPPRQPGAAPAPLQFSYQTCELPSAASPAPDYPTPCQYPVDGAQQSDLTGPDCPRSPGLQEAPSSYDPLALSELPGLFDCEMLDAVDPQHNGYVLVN

CN(C)C(=O)Cn1cc(-c2nc(C3(c4ccc(-c5cnc(N)nc5)cc4)CC3)no2)cn1 [BI 0153]
inactive: [1] 82% | [2] 82% | [3] 100% | [4] 100% | [5] 100% | [6] 87% | [7] 80% | [8] 71% | [9] 100% | [10] 100% | [11] 100% | [12] 85% | [13] 100% | [14] 100% | [15] 100% | [16] 100% | [17] 73% | [18] 97%

CN(C)C(=O)Cn1cc(-c2nc([C@@](C)(c3ccc(-c4cnc(N)nc4)cc3)C3CC3)no2)cn1 [BI 665915]
inactive: [1] 86% | [2] 73% | [3] 100% | [4] 100% | [5] 100% | [6] 100% | [7] 100% | [8] 97% | [9] 100% | [10] 96% | [11] 95% | [12] 100% | [13] 93% | [14] 100% | [15] 93% | [16] 89% | [17] 93% | [18] 94%
